The subject of one data set is dog. Nature of the data set: Safety of intravenous dosing in dog models. To be noted: intravenous 9 mg/kg.
Another data set deals with anesthetized guinea pigs. The data set is described as follows: Cardiovascular safety, QTc interval in anesthetized guinea pigs, i.v. bolus. It is filed as in vivo, guinea pig. Particulars: for QTc prolongation (% above vehicle): anesthetized guinea pig, incremental i.v. bolus doses 0.47 to 15 mg/kg. Here is the method: (§1) Total doses of drug (0.47, 0.94, 1.88, 3.75, 7.5, and 15 mg/kg) or equivalent volumes of vehicle were administered incrementally as an i.v. bolus to groups of 6 anesthetized rats or guinea pigs at 0, 15, 30, 45, 60, and 75 minutes. Hemodynamic parameters including mean arterial pressure (MAP) and heart rate (HR), and ECG parameters (QT and PR intervals and QRS duration) were recorded. For the rat, injection of vehicle gave a 16% increase in QT interval over baseline. For the guinea pig, injection of vehicle gave a 3% increase in QT interval over baseline.

Data set [1] is described as follows: Pharmacokinetics in the mouse, plasma and lung tissue. The class given is in vivo. Particulars: oral gavage 10 mg/kg; for Lung AUC / Lung Cmax: mouse lung tissue. Here is the method:
The pharmacokinetics of compounds of formula (VIII) and compounds of formula (II) and (III) were measured in the mouse. Compounds were administered either intravenously (i.v.) at 1 mg/kg, or per oral gavage (p.o.) at 10 mg/kg. Plasma samples were taken and analyzed by LC/MS-MS. For lung tissue pharmacokinetics, lungs were removed and homogenized, followed by analyzis by LC/MS-MS.

Another data set relates to anesthetized rats. The data set is described as follows: Cardiovascular safety, QT interval in anesthetized rats, i.v. bolus. Particulars: for QT prolongation (% above vehicle): anesthetized rat, incremental i.v. bolus doses 0.47 to 15 mg/kg. It is filed as in vivo, rat. How it is done:
as §1

Data set [2] relates to Streptococcus pneumoniae ATCC 6303. Nature of the data set: rat lower respiratory tract infection (lung pneumonia) model. Particulars: for Log CFU/g (avg, n = 8): rat lungs, 12 hours after the last dose. It is filed as in vivo. How it is done: The in vivo efficacy of compounds (II) and (III) were evaluated in a rat lower respiratory tract infection model. Groups of 8 rats were infected intratracheally with 0.5 mL containing 10^6 CFUs of Streptococcus pneumoniae ATCC 6303 in 5% hog gastric mucin. Compounds dissolved in ethanol were administered by oral gavage daily over 3 days starting 18 hours post-inoculation. Lungs were aseptically removed from survivors 12 hours after the last dose and examined for visible signs of infection, then homogenized in sterile PBS and plated for determination of CFUs by log plating on Columbia agar-nalidixic acid plates.

A further data set relates to Streptococcus pneumoniae. Nature of the data set: MIC, NCCLS broth microdilution, respiratory pathogens. It is filed as cell-based. Particulars: S. pneumoniae. Here is the method:
(§2) Minimum inhibitory concentrations (“MICs”) were determined by the NCCLS broth microdilution procedure for susceptibility testing for bacteria that grow aerobically (National Committee for Clinical Laboratory Standards, 1997. Methods for dilution antimicrobial susceptibility tests for bacteria that grow aerobically, 4th ed. Approved standard. NCCLS Document M7-A4. National Committee for Clinical Laboratory Standards, Villanova, Pa.). Stock solutions were prepared on the day of the test and appropriate aliquots were added to cation adjusted Mueller-Hinton broth (CAMHB, DIFCO) or Haemophilus test media. Two-fold serial dilutions were prepared and added to wells in microtiter plates. Final test concentrations ranged from 8 to 0.004 ug/ml. Broth cultures of bacteria inoculated from growth on overnight plates for all test bacteria except Streptococcus pneumoniae and Haemophilus influenzae were incubated at 35° C. and then adjusted to the Kirby Bauer standard and diluted in CAMHB to achieve a final inoculum concentration of approximately 5×10^5 CFU/ml. Inocula for S. pneumoniae and H. influenzae were prepared by directly suspending colonies from an overnight plate, adjusting the turbidity and diluting as above. S. pneumoniae media was supplemented with 3% lysed horse blood. All plates were incubated in ambient air at 35° C. for 20-24 h for S. pneumoniae and Haemophilus influenzae and 16-20 h for all other bacteria.

A further data set has as its system M. catarrhalis. The description is as above. It is filed as cell-based. Particulars: Moraxella catarrhalis. How it is done: as §2
Another data set relates to Haemophilus influenzae. The data set is described as above. It is filed as cell-based. To be noted: H. influenzae. Here is the method:
as §2

In the next data set the test system is S. pyogenes. The data set is described as above. To be noted: Streptococcus pyogenes. It is filed as cell-based. Here is the method: as §2
A further data set has as its system male beagle dogs. The data set is described as follows: Cardiovascular safety in telemetered dogs, intravenous infusion. It is filed as in vivo, dog. The source says: Four male beagle dogs, obtained from Marshall Farms USA, Inc. (North Rose, N.Y.), were surgically instrumented with telemetry transducers (Data Sciences International, type RL11M2-D70-PCT) to assess arterial blood pressure (ABP) and lead II electrocardiogram (ECG) parameters.
The dosing route was an intravenous infusion jugular vein access). The infusion was accomplished using a CADD Prizm® ambulatory infusion pump attached to a jacket worn by the dog. The dose duration for the intravenous infusion was 30 min for all doses administered, except the last dose (30 mg/kg) where the infusion period was extended to 45 min to accommodate the larger dose volume required for this dose. The vehicle dose and diluent for the test article was 0.05-M sodium citrate in sterile water for injection.
There was one treatment group of four non-naïve dogs and the study was comprised of both pharmacokinetic and telemetry phases, as summarized in the dose administration table for compound (III) (Table 16) below. At least one week was given between dosings to allow clearance of the drug.
For the telemetry phase of the study, collection of hemodynamic and lead II ECG data commenced approximately 30 min prior to dosing and ended approximately 6 h post-dose. Systolic blood pressure (SBP), diastolic blood pressure (DBP), HR, and lead II ECG variables (PR interval, QRS duration, RR interval, and QT interval) were acquired continuously from each animal during each dose day recording session. The QT interval was corrected for variations in HR using the Fridericia's QTc interval (QTcF).
Data acquired following treatment with vehicle or compound (III) were extracted at −10, −5, 0, 10, 20, 30, 35, 45, 60, 90, 150, 270, and 390 min relative to the start dose time. For all blood pressure and ECG parameters, data following treatment with compound (III) were compared to the time-matched vehicle dose data. Statistical comparisons were made using a one-way ANOVA for repeated measures, followed by the Dunnett's post-hoc test when statistical significance was detected with the ANOVA. Changes were considered statistically significant when p<0.05.
A complete visual scan of the ECG waveforms from the vehicle, 11 mg/kg dose, and 15 mg/kg dose of compound (III) was conducted. All waveforms were examined for gross changes in waveform morphology and arrhythmogenesis.

For a further data set, the system named is human hepG2 hepatocytes. The data set is described as follows: In vitro hepatotoxicity, resazurin and Nile Red staining. It is filed as cell-based. To be noted: 100 μM. Here is the method: In one experiment, hepatotoxicity was estimated by overnight incubation of compounds at 3, 10, 30, 100, or 300 μM with cultured rat or human hepG2 hepatocytes, followed by staining of the cells with resazurin to measure viability or with Nile Red to measure steatosis. The minimal drug concentration at which changes in dye binding were observed was noted as the minimal effective concentration. The compound of formula (VIII) wherein Z=3-quinolyl affected […] and steatosis in human HepG2 hepatocytes at 30 μM.

Where [3] appears, read: genotype sensitive, read-out: MIC50.
The mark [4] stands for this setting: genotype sensitive, read-out: MIC90.

Two compounds from patent US7595300B2, “7-quinolyl ketolide antibacterial agents” (priority 2005, dated 2009) can be followed below.

As a reminder, the AUC is concentration integrated over time. Broadly, the Cmax is the highest concentration seen after dosing.

Values after ≈ are worked out from the molar mass of the structure shown. Where two headings read alike, the source gives them in different places. Some results are limits rather than exact numbers.

With `CC1CC(N(C)C)C(O)C(O[C@@H]2[C@@H](C)C(=O)[C@](C)(F)C(=O)O[C@H](CCF)[C@@]3(C)OC(=O)N[C@@H]3[C@@H](C)C(=O)[C@H](C)C[C@@]2(C)OC/C=C/c2ccc3nccnc3c2)O1` (stereo partly shown) [H], in the data set with dog, the “toxicity, severe clinical effects upon intravenous dosing” value was “extremely toxic”. In addition, in the data set on anesthetized guinea pigs, the “QTc prolongation (% above vehicle)” value was 4 % above vehicle. Further, in data set [1], the “Lung AUC” value amounted to 11.0 ug/mL-h and the “Lung Cmax” value is 3.0 µg/mL. Also, in data set [1] (mouse plasma), the “Plasma AUC” value is listed as 2.1 ug/mL-h and the “Plasma Cmax” value was found to be 0.67 µg/mL. In addition, the “QT prolongation (% above vehicle)” value with anesthetized rats came to 15 % above vehicle.

Consider `CC1CC(N(C)C)C(O)C(O[C@@H]2[C@@H](C)C(=O)[C@@H](C)C(=O)O[C@H](CCF)[C@@]3(C)OC(=O)N[C@@H]3[C@@H](C)C(=O)[C@H](C)C[C@@]2(C)OC/C=C/c2ccc3cccnc3c2)O1` (stereo partly shown) [Compound (II), 6-O-(1-(7-quinolyl)-3-propenyl)-11-amino-11-deoxy-3-(descladinosyl)-3-oxo-15-fluoroerythromycin A-11,12-cyclic carbamate], for which the “QTc prolongation (% above vehicle)” value in the data set on anesthetized guinea pigs is 1 % above vehicle. Further, in the data set on anesthetized guinea pigs (guinea pig, cumulative doses up to 30 mg/kg, relative to vehicle controls), the “effect on the QTc interval in the anesthetized guinea pig” value is recorded as “no statistically significant effects”. For the same compound, the “Log CFU/g (avg, n = 8)” value in [2] (0.5 mg/kg oral gavage daily over 3 days) stood at 4.8 Log CFU/g; in data set [2] (2.5 mg/kg oral gavage daily over 3 days), 4.3 Log CFU/g. Besides, the “% survivors” value in [2] (rat, 0.5 mg/kg oral gavage daily over 3 days) was 78%; in data set [2] (rat, 2.5 mg/kg oral gavage daily over 3 days) it was 88%. Also, the “reducing the bacterial load in the rat lungs and increasing survival relative to control animals” value in data set [2] (rat, oral gavage daily over 3 days) is given as “efficacious”. The MIC50 is 1 µg/mL in the data set on Streptococcus pneumoniae (20 h, genotype ermB + mef); 0.12 µg/mL (≈ 0.153 µM) against Streptococcus pneumoniae (genotype ermB); 0.25 µg/mL (≈ 0.319 µM) in the data set with Streptococcus pneumoniae (genotype mef, read-out: MIC50); 0.03 µg/mL (≈ 0.0383 µM) in the data set on Streptococcus pneumoniae (setting [3]); 0.12 µg/mL (≈ 0.153 µM) in the data set with M. catarrhalis; over 8 µg/mL in the data set with Haemophilus influenzae (resistant). Besides, the MIC50 came to 2 µg/mL (≈ 2.55 µM) with Haemophilus influenzae (sensitive); 0.12 µg/mL (≈ 0.153 µM) with S. pyogenes (genotype ermB); 0.12 µg/mL (≈ 0.153 µM) in the data set with S. pyogenes (genotype mef, read-out: MIC50); 0.03 µg/mL (≈ 0.0383 µM) with S. pyogenes (setting [3]). For the same compound, the MIC90 in the data set with Streptococcus pneumoniae (genotype ermB) is 0.12 µg/mL (≈ 0.153 µM); in the data set with Streptococcus pneumoniae (genotype ermB + mef), 2 µg/mL; in the data set with Streptococcus pneumoniae (genotype mef, read-out: MIC90), 0.25 µg/mL (≈ 0.319 µM); with Streptococcus pneumoniae (setting [4]) it was 0.03 µg/mL (≈ 0.0383 µM); with M. catarrhalis, 0.12 µg/mL (≈ 0.153 µM); with Haemophilus influenzae (resistant), over 8 µg/mL. The MIC90 against Haemophilus influenzae (sensitive) came out at 4 µg/mL (≈ 5.1 µM); against S. pyogenes (genotype ermB), 1 µg/mL (≈ 1.28 µM); with S. pyogenes (genotype mef, read-out: MIC90), 0.25 µg/mL (≈ 0.319 µM); in the data set on S. pyogenes (setting [4]), 0.03 µg/mL (≈ 0.0383 µM). In addition, the “heart rate-corrected QT interval (QTc), FIG. 5” value with male beagle dogs (male beagle dogs, intravenous infusion 15 mg/kg over 30 minutes) is given as “No significant increase in QTc”. The “effects on cardiac parameters, including QT interval” value in the data set on male beagle dogs (telemetered dogs, intravenous infusion up to 15 mg/kg) was “no effects”. Moreover, the “effects on metabolic stability and steatosis” value in the data set with human hepG2 hepatocytes is recorded as “No effects”. Besides, in data set [1], the “Lung AUC” value is given as 1.42 ug/mL-h. For the same compound, the “Lung Cmax” value in [1] was determined as 0.26 µg/mL. In data set [1] (mouse plasma), this compound registered an AUC of 890 ng·h/mL. This compound also registered a peak concentration (Cmax) in data set [1] (mouse plasma) of 260 ng/mL. Besides, in the data set with anesthetized rats, the “QT prolongation (% above vehicle)” value was −4 % above vehicle. Besides, the “effect on the QT interval in the rat” value in the data set with anesthetized rats (rat) is recorded as “did not prolong the QT interval”.
